Experimental findings from EP0987275B1, “Molecules that home to a selected organ or tissue in vivo” (LA JOLLA CANCER RESEARCH FOUNDATION, priority 1995, dated 2008) are described below.

“And” between values parts separate entries of the source, which are not always exact repeats. Identical values can stand only once. Where no end group is shown, it is not given here.

Test [1] has as its system Human 435 breast carcinoma cells. Briefly: In vivo targeting of phage expressing an RGD peptide to a breast tumor. The arrangement: species or system nude mice. The note with it: for RGD phage as compared to unselected control phage accumulated in the tumor: human breast carcinoma tumors. On the procedure:
Human 435 breast carcinoma cells were inoculated into the mammary fat pad of nude mice. When the tumors attained a diameter of about 1 cm, phage expressing a specific RGD-containing peptide were administered to the tumor bearing mouse. Similar results to those discussed below also were obtained with nude mice bearing tumors formed by implantation of human melanoma C8161 cells or by implantation of mouse B16 melanoma cells.
1 x 10^9 phage expressing the RGD-containing peptide, CDCRGDCFC (SEQ ID NO: 57; see, Koivunen et al., supra, 1995) or control (insertless) phage were injected intravenously (iv) into the mice and allowed to circulate for 4 min. The mice then were snap frozen while under anesthesia, and various organs, including tumor, brain and kidney, were removed and the phage present in the organs was quantitated (see Pasqualini and Ruoslahti, supra, 1996).

The test system of test [2] is brain. The test can be described thus: In vivo panning of phage peptide display libraries, brain as the selected organ (kidney control). The arrangement: species or system mice. To be noted: phage recovered from brain; for (% PHAGE): % of the 73 clones sequenced; for # PHAGE DISPLAYING SAME A.A. SEQUENCE: second and third rounds of in vivo panning, 73 cloned phage sequenced. On the procedure:
Phage display libraries were constructed using the fuse 5 vector as described by Koivunen et al. (supra, 1995; see, also, Koivunen et al. Meth. Enzymol. 245:346-369 (1994b), which is incorporated herein by reference). Six libraries encoding peptides designated CX5C (SEQ ID NO: 36), CX6C (SEQ ID NO: 37), CX7C (SEQ ID NO: 38), CX9 (SEQ ID NO: 39), X2CX14CX2 (SEQ ID NO: 40) and X2CX18 (SEQ ID NO: 41) were prepared, where "C" indicates cysteine and "XN" indicates the given number of individually selected amino acids. These libraries can display cyclic peptides when at least two cysteine residues are present in the peptide.
Oligonucleotides were constructed such that "C" was encoded by the codon TGT and "XN" was encoded by NNK, where "N" is equal molar mixtures of A, C, G and T, and where "K" is equal molar mixtures of G and T. Thus, the peptide represented by CX5C (SEQ ID NO: 36) can be represented by an oligonucleotide having the sequence TGT(NNK)5TGT (SEQ ID NO: 42). Oligonucleotides were made double stranded by 3 cycles of PCR amplification, purified and ligated to the nucleic acid encoding the gene III protein in the fuse 5 vector such that, upon expression, the peptide is present as a fusion protein at the N-terminus of the gene III protein.
The vectors were transfected by electroporation into MC1061 cells. Bacteria were cultured for 24 hr in the presence of 20 µg/ml tetracycline, then phage were collected from the supernatant by precipitation twice using polyethylene glycol. Each library contained about 5 x 10^9 to 5 x 10^14 transducing units (TU; individual recombinant phage).
(§1) A mixture of phage libraries containing 1 x 10^14 TU was diluted in 200 µl DMEM and injected into the tail vein of anesthetized BALB\c mice (2 month old females; Jackson Laboratories; Bar Harbor ME); Avertin™ (0.015 ml/g) was used as anesthetic (see Pasqualini and Ruoslahti, supra, 1996). After 1-4 minutes, mice were snap frozen in liquid nitrogen. To recover the phage, carcasses were partially thawed at room temperature for 1 hr, organs were collected and weighed, then were ground in 1 ml DMEM-PI (DMEM containing protease inhibitors (PI); phenylmethylsulfonyl fluoride (PMSF; 1 mM), aprotinin (20 µg/ml), leupeptin (1 µg/ml)).
(§2) Organ samples were washed 3 times with ice cold DMEM-PI containing 1% bovine serum albumin (BSA), then directly incubated with 1 ml K91-kan bacteria for 1 hr. Ten ml NZY medium containing […] tetracycline (NZY/tet) was added to the bacterial culture, the mixture was incubated in a 37°C shaker for 1 hr, then 200 µl aliquots were plated in agar plates containing 40 µg/ml tetracycline (tet/agar).
(§3) Individual colonies containing phage recovered from brain or kidney were grown for 16 hr in 5 ml NZY/tet. The bacterial cultures obtained from the individual colonies were pooled and the phage were purified and re-injected into mice as described above for a second round of in vivo panning. A third round of panning also was performed. Phage DNA was purified from individual bacterial colonies obtained from the second and the third round of in vivo panning and the DNA sequences encoding the peptides expressed by selected phage were determined (see Koivunen et al., supra, 1994b).
Three rounds of in vivo panning in mice were performed. Kidney was used as a control organ. Mice were injected with two different mixtures of phage libraries. The first mixture contained libraries encoding CX9 (SEQ ID NO: 39), CX5C (SEQ ID NO: 36), CX6C (SEQ ID NO: 37) and CX7C (SEQ ID NO: 38) peptides (CX5-7/CX9 mixture; SEQ ID NOS: 36-39). The second mixture contained libraries encoding X2CX14CX2 (SEQ ID NO: 40) and X2CX18 (SEQ ID NO: 41) peptides (X2CX18/X2CX14CX2 mixture; SEQ ID NOS: 40 and 41).
The phage library mixtures were administered to mice via tail vein injection. Phage input was […] of the CX5-7/CX9 (SEQ ID NOS: 36-39) mixture or 1 x 10^14 TU of the X2CX18/X2CX14CX2 (SEQ ID NOS: 40 and 41) mixture. […]

Test [3] concerns brain. The test can be described thus: Specificity of brain homing of individually amplified phage (TU in brain vs kidney). The class given is in vivo, mice. To be noted: individual phage, same input titer. The method, then: To determine the specificity of brain homing of the individual motifs identified, phage displaying the predominant motifs were amplified individually, diluted to the same input titer and administered to mice. Following administration, brain and kidney were removed and the number of TU of phage in each organ was determined. […] Specifically, the ratio of selective homing (brain:kidney) was about 8 for CNSRLHLRC (SEQ ID NO: 1) and for CLSSRLDAC (SEQ ID NO: 3), 4 for CENWWGDVC (SEQ ID NO: 2) and 9 for […] (SEQ ID NO: 16).

For test [4], the system named is kidney. Briefly: In vivo panning of phage peptide display libraries, kidney as the selected organ (brain control). The note with it: phage recovered from kidney; for (% PHAGE): % of the 48 clones sequenced; for # PHAGE DISPLAYING SAME A.A. SEQUENCE: 48 cloned phage sequenced. More on the design: species or system mice. On the procedure:
as §1, §2, §3
The same methodology used to isolate phage expressing brain homing peptides was used to isolate phage expressing peptides that home to kidney. In these experiments, brain was used as the control organ. A mixture of the CX5C (SEQ ID NO: 36) and the CX6C (SEQ ID NO: 37) libraries was administered as described above. Homing of phage to the kidney was obtained and an approximately 3x to 7x enrichment of phage homing to kidney was observed following a second round of in vivo panning.
(§4) The amino acid sequences were determined for the inserts in 48 cloned phage that homed to kidney. The peptides expressed by these phage were represented by two predominant sequences, CLPVASC (SEQ ID NO: 21; 46% of the clones sequenced) and CGAREMC (SEQ ID NO: 22; 17% of the clones; see Table 2). In addition, the peptide CKGRSSAC (SEQ ID NO: 23) appeared three times and three other peptides were present twice each.

Test [5] has as its system kidney. Briefly: Selective kidney homing of individual phage (kidney vs brain). The class given is in vivo, mice. On the procedure:
as §4

Test [6] relates to Human 435 breast carcinoma cells. Briefly: In vivo panning in mice bearing a human breast carcinoma tumor. The arrangement: species or system nude mice. To be noted: phage recovered from human breast cancer after third round, 14 cloned phage; for # clones: CX3CX3CX3C library. On the procedure:
Human 435 breast carcinoma cells (Price et al., Cancer Res. 50:717-721 (1990)) were inoculated into the mammary fat pad of nude mice. When the tumors attained a diameter of about 1 cm, either a phage targeting experiment was performed, in which phage expressing a specific peptide were administered to the tumor bearing mouse, or in vivo panning was performed.
The breast tumor bearing mice were injected with 1 x 10^9 phage expressing a library of CX3CX3CX3C (SEQ ID NO: 47) peptides, where X3 indicates three groups of independently selected, random amino acids. The phage were allowed to circulate for 4 min, then the mice were anesthetized, snap frozen in liquid nitrogen while under anesthesia, and the tumor was removed. Phage were isolated from the tumor and subjected to two additional rounds of in vivo panning.
Following the third round of panning, phage were quantitated and the peptide sequences expressed by 14 different cloned phage were determined. The 14 cloned phage expressed 4 different peptides (Table 3).

Test [7] deals with B16B15b mouse melanoma cells. Briefly: In vivo panning in mice bearing an implanted mouse melanoma tumor. More on the design: species or system nude mice. To be noted: phage recovered from B16B15b tumors; 89 cloned phage sequenced. The method, then:
Mice bearing a melanoma were produced by implantation of B16B15b mouse melanoma cells, which produce highly vascularized tumors. B16B15b mouse melanoma cells were injected subcutaneously into the mammary fat pad of nude mice (2 months old) and tumors were allowed to grow until the diameter was about 1 cm. In vivo panning was performed as disclosed above. Approximately 1 x 10^12 transducing units of phage expressing the CX5C (SEQ ID NO: 36), CX6C (SEQ ID NO: 37) or […] library were injected, iv, and allowed to circulate for 4 min. Mice then were snap frozen in liquid nitrogen while under anesthesia, tumor tissue and brain (control organ) were removed, and phage were isolated as described above. Three rounds of in vivo panning were performed.
The amino acid sequences were determined for the inserts in 89 cloned phage recovered from the B16B15b tumors. The peptides expressed by these phage were represented by two predominant sequences, CLSGSLSC (SEQ ID NO: 55; 52% of the clones sequenced) and WGTGLC (SEQ ID NO: 52; 25% of the clones; see Table 4).

The test system of test [8] is melanoma. The test can be described thus: Immunohistochemical staining (anti-M13) for phage localization in melanoma bearing mice. To be noted: 1 x 10^9 pfu phage iv, 4 min. The class given is in vivo. The method, then:
Localization of the phage expressing a tumor homing peptide in the mouse organs was examined by immunohistochemical staining of the tumor and various other tissues. 1 x 10^9 pfu of a control (insertless) phage or a phage expressing the tumor homing peptide, CLSGSLSC ([…]), were injected, iv, into tumor bearing mice and allowed to circulate for 4 min. The mouse then was perfused with DMEM and various organs, including the tumor were removed and fixed in Bouin's solution. Histologic sections were prepared and stained using anti-M13 (phage) antibodies (see Pasqualini and Ruoslahti, supra, 1996).

CDCRGDCFC: the “phage detected in the breast tumor as compared to brain and kidney” value in test [1] (1 x 10^9 phage iv, 4 min) is 2-3 times. For the same substance, the “immunohistochemical staining for the phage in the tumor” value in test [1] (breast tumors) is “accumulation of the RGD phage in the blood vessels within the tumor”. The figures for the “RGD phage as compared to unselected control phage accumulated in the tumor” value in test [1] and in test [1] (listed as RGD phage) were 80 fold and “twenty- to eighty-fold”, respectively. Moreover, the “staining for the phage in brain or kidney (control organs)” value in test [1] (mouse, in vivo) was “no staining”.

As to CENWWGDVC (displayed on phage), in test [2], the “(% PHAGE)” value is 19% and 19.2%; the “# PHAGE DISPLAYING SAME A.A. SEQUENCE” value stood at 14. In addition, the “ratio of selective homing (brain:kidney)” value in test [3] is ~4.

Take CGAREMC (displayed on phage): in test [4], the “(% PHAGE)” value is 17% and 16.7%; the “# PHAGE DISPLAYING SAME A.A. SEQUENCE” value is recorded as 8. For the same substance, the “ratio of selective kidney:brain homing” value in test [5] is 3.

In the case of “CGEACGGQCALPC [breast tumor homing peptide]”, in test [6], the “% of total phage sequenced” value is reported as 28.6% and the “# clones” value worked out at 4.

For the substance “CGLMCQGACFDVC [peptide from phage recovered from human breast cancer]”, in test [6], the “% of total phage sequenced” value was 7.1% and the “# clones” value came out at 1.

For the substance “CGRECPRLCQSSC [breast tumor homing peptide]”, in test [6], the “% of total phage sequenced” value came to 42.9%.

On to “CKGRSSAC (cysteine pairing not given here; also: displayed on phage)”, for which the “(% PHAGE)” value in test [4] is reported as 6.2%. For the same substance, the “ratio of selective kidney:brain homing” value in test [5] was 2.

Consider CLPVASC (displayed on phage), for which, in test [4], the “(% PHAGE)” value was 46% and 45.8%; the “# PHAGE DISPLAYING SAME A.A. SEQUENCE” value is recorded as 22. Moreover, the “ratio of selective kidney:brain homing” value in test [5] is on record as 7.

As to “CLSGSLSC (not fully specified; cysteine pairing not given here; also: displayed on phage)”, in test [7], the “# clones” value is given as 46 and the “% of total phage” value is reported as 52%. Moreover, in test [8], the “immunostaining in the liver sinusoids and in spleen” value is given as “immunostaining was detected”; the “immunostaining in the melanoma” value is “Strong immunostaining”; the “staining in skin or in kidney samples” value was “Essentially no staining”.

As for “CNGRCVSGCAGRC [breast tumor homing peptide]”, in test [6], the “% of total phage sequenced” value is 21.4% and the “# clones” value is 3.

As to CNSRLHLRC (displayed on phage), in test [2], the “(% PHAGE)” value came to 21.9% and the “# PHAGE DISPLAYING SAME A.A. SEQUENCE” value is given as 16. Besides, the “ratio of selective homing (brain:kidney)” value in test [3] is on record as “about 8”.

Consider “CSVANSC (cysteine pairing not given here; also: displayed on phage) [peptide from phage recovered from mouse B16B15b melanoma]”, for which, in test [7], the “# clones” value turned out to be 3 and the “% of total phage” value stood at 3%.

As for “WGTGLC (also: displayed on phage) [peptide from phage recovered from mouse B16B15b melanoma]”, in test [7], the “# clones” value was determined as 22 and the “% of total phage” value worked out at 25%.

For the substance “WRCVLREGPAGGCAWFNRHRL (displayed on phage)”, in test [2], the “(% PHAGE)” value was determined as 13.7% and the “# PHAGE DISPLAYING SAME A.A. SEQUENCE” value was found to be 10. In addition, the “ratio of selective homing (brain:kidney)” value in test [3] is ~9.
